# Columns and labels:
# Type in all cases: cell-based
# [1] = tested on: MCF-7 McGuire (Estrogen Responsive Human Breast Cancer Cell Line); test: Inhibition of DNA synthesis (3H-TdR uptake) / proliferation, MCF-7; conditions: for inhibition at 0.1 µg/mL / inhibition at 1 µg/mL / inhibition at 5 µg/mL / inhibition at 10 µg/mL / inhibition at 20 µg/mL: Homo sapiens, MCF7, 48 h; for inhibition at 0.1 µg/mL: MCF-7, 0.1 μg/mL; for inhibition at 1 µg/mL: MCF-7, 1 μg/mL
# Method: (§1) Cells were cultured in the following media: 1) MDA MB 435 cells were cultured in Minimum Essential Media (MEM-HyClone, Logan, Utah) supplemented with 5% heat inactivated fetal bovine serum (HyClone), 2 mM glutamine (Sigma, St. Louis, Mo.), 1 mM sodium pyruvate (Sigma), 1X MEM Non-Essential Amino Acids (Sigma), 2X MEM Vitamins (Sigma), and 100 IU/mL penicillin/100 μg/mL streptomycin (HyClone); 2) MCF-7 McGuire cells were cultured in Minimum Essential Media (MEM-HyClone, Logan, Utah) supplemented with 5% heat inactivated fetal bovine serum (HyClone), 2 mM glutamine (Sigma, St. Louis, Mo.), and 100 IU/mL penicillin/100 μg/mL streptomycin (HyClone); 3) HL-60 cells were cultured in Iscoves Modified Dulbecco's Media (IMDM-HyClone, Logan, Utah) supplemented with 5% heat inactivated fetal bovine serum (HyClone), 2 mM glutamine (Sigma, St. Louis, Mo.), 1 mM sodium pyruvate (Sigma), 1X MEM Non-Essential Amino Acids (Sigma), 2X MEM Vitamins (Sigma), and 100 IU/mL penicillin/100 μg/mL streptomycin (HyClone); 2) MCF-7 McGuire cells were cultured in Minimum Essential Media (MEM-HyClone, Logan, Utah) supplemented with 5% heat inactivated fetal bovine serum (HyClone), 2 mM glutamine (Sigma, St. Louis, Mo.), and 100 IU/mL penicillin/100 μg/mL streptomycin (HyClone); 3) HL-60 cells were cultured in Iscoves Modified Dulbecco's Media (IMDM-HyClone, Logan, Utah) supplemented with 5% heat inactivated fetal bovine serum (HyClone), 2 mM glutamine (Sigma, St. Louis, Mo.), and 100 IU/mL penicillin/100 μg/mL streptomycin (HyClone).
# (§2) All compounds were handled as if they were light sensitive. All compounds were initially dissolved in absolute ethanol and subsequently diluted to a final concentration of 0.5% ethanol with the appropriate medium.
# (§3) For the bioassay, all cells were used at 2.5×10^5 /mL. Cells were treated with each of the compounds at concentrations of 20, 10, 5, 1, 0.1, and 0.01 μg/mL , and 200 μl of each treatment group were plated in quadruplicate in a 96 well culture plate (Corning, Corning N.Y.). Plates were done in duplicate, one plate to be used for viability testing and the other plate to examine ^3 H-TdR uptake (DNA synthesis).
# (§4) Plates were cultured for 48 hours at 37° C., 5% CO2. Eight hours prior to the end of incubation, ^3 H-TdR was added to one of the duplicate plates and incubation continued for 8 hours. The cells were then harvested (trypsinization was required to harvest MDA MB 435 and MCF-7 McGuire). At the end of the incubation, the cells were removed from the wells (of the duplicate plate--no radioisotope added) and viability checked by the Trypan Blue Exclusion method. Percent viability and percent suppression of each treatment group were calculated.
# (§5) With respect to the data shown in the Tables below, the data is arranged from greatest percent inhibition of DNA synthesis to lowest. […] "NT" refers to "Not Tested". The cells were cultured for 48 hours, pulsed 8 hours with tritiated thymidine, harvested and counted. MDA MB 435 is the abbreviation for the Metastic Human Breast Cancer Cell Line. MCF-7 McGuire is the abbreviation for the Estrogen Responsive Human Breast Cancer Cell Line and HL-60 is the Human Promyelocytic Leukemia Cell Line.
# [2] = tested on: MDA MB 435 (Metastic Human Breast Cancer Cell Line); test: Inhibition of DNA synthesis (3H-TdR uptake) / proliferation, MB-435; conditions: for inhibition at 0.1 µg/mL / inhibition at 1 µg/mL / inhibition at 5 µg/mL / inhibition at 10 µg/mL / inhibition at 20 µg/mL: Homo sapiens, MDA-MB-435, 48 h; for inhibition at 0.1 µg/mL: MB-435, 0.1 μg/mL; for inhibition at 1 µg/mL: MB-435, 1 μg/mL
# Method: as §1, §2, §3, §4, §5
# [3] = tested on: HL-60 (Human Promyelocytic Leukemia Cell Line); test: Inhibition of DNA synthesis (3H-TdR uptake) / proliferation, HL-60; conditions: for inhibition at 0.1 µg/mL / inhibition at 1 µg/mL / inhibition at 5 µg/mL / inhibition at 10 µg/mL / inhibition at 20 µg/mL: Homo sapiens, 48 h; for inhibition at 0.1 µg/mL: HL-60, 0.1 μg/mL; for inhibition at 1 µg/mL: HL-60, 1 μg/mL; for inhibition at 10 µg/mL: HL-60, 10 μg/mL
# Method: as §1, §2, §3, §4, §5
SMILES,inhibition at 0.1 µg/mL [1],inhibition at 1 µg/mL [1],"inhibition at 5 µg/mL ([1]; MCF-7, 5 μg/mL)","inhibition at 10 µg/mL ([1]; MCF-7, 10 μg/mL)","inhibition at 20 µg/mL ([1]; MCF-7, 20 μg/mL)",inhibition at 0.1 µg/mL [2],inhibition at 1 µg/mL [2],"inhibition at 5 µg/mL ([2]; MB-435, 5 μg/mL)","inhibition at 10 µg/mL ([2]; MB-435, 10 μg/mL)","inhibition at 20 µg/mL ([2]; MB-435, 20 μg/mL)",inhibition at 0.1 µg/mL [3],inhibition at 1 µg/mL [3],"inhibition at 5 µg/mL ([3]; HL-60, 5 μg/mL)",inhibition at 10 µg/mL [3],"inhibition at 20 µg/mL ([3]; HL-60, 20 μg/mL)","inhibition of proliferation (in words) ([2]; MB-435, 20 μg/mL)","inhibition of proliferation (in words) ([3]; HL-60, 20 μg/mL)",also measured
Cc1c(C)c2c(c(C)c1O)CC1(CC1)O2 [Compound 32],0%,10%,5%,18%,22%,6%,6%,15%,30%,43%,11%,5%,12%,17%,26%,–,–,"inhibition of proliferation (in words) ([1]; MCF-7, 10-20 μg/mL): significantly inhibited the proliferation; inhibition of proliferation (in words) ([2]; MB-435, 10-20 μg/mL): significantly inhibited the proliferation; inhibition of proliferation (in words) ([3]; HL-60, 10-20 μg/mL): significantly inhibited the proliferation"
"Cc1cc2c(c(C)c1O)C(C)CN2C(=O)C(C)(C)C (centres unmarked) [Compound 11c, N-Pivaloyl-5-hydroxy-3,4,6-trimethylindoline]",18%,1%,9%,31%,43%,13%,12%,20%,12%,31%,0%,0%,0%,0%,0%,–,–,–
"CC(=O)N1CC(C)(C)c2c1cc(C)c(O)c2C [Compound 16, N-Acetyl-5-hydroxy-3,3,4,6-tetramethylindoline]",–,–,–,–,–,0%,1%,9%,18%,31%,0%,0%,11%,11%,15%,–,–,"inhibition of proliferation (in words) ([2]; MB-435, 5-20 μg/mL): significantly inhibited the proliferation; inhibition of proliferation (in words) ([3]; HL-60, 5-20 μg/mL): significantly inhibited the proliferation"
"Cc1c(O)c(C)c2c(C)cn(C(=O)C(C)(C)C)c2c1C [Compound 27, N-Pivaloyl-5-hydroxy-3,4,6,7-tetramethylindole]",0%,14%,57%,86%,–,4%,15%,54%,91%,97%,0%,12%,61%,91%,97%,–,–,"inhibition of proliferation (in words) ([1]; MCF-7, 5 μg/mL): significantly inhibited the proliferation; inhibition of proliferation (in words) ([2]; MB-435, 5 μg/mL): significantly inhibited the proliferation; inhibition of proliferation (in words) ([3]; HL-60, 5 μg/mL): significantly inhibited the proliferation"
"Cc1cc2c(C)c(O)c(C)c(C)c2o1 [Compound 33, 5-Hydroxy-2,4,6,7-tetramethylbenzofuran]",19%,0%,0%,16%,72%,1%,2%,8%,16%,42%,0%,0%,0%,7%,36%,significantly inhibited the proliferation,significantly inhibited the proliferation,"inhibition of proliferation (in words) ([1]; MCF-7, 20 μg/mL): significantly inhibited the proliferation"
"COc1c(C)cc2c(c1C)C(C)CN2C(=O)C(C)C (centres unmarked) [Compound 13, N-Isobutyryl-5-methoxy-3,4,6-trimethylindoline]",–,–,–,–,–,4%,-4%,8%,17%,45%,0%,10%,15%,27%,53%,inhibited the proliferation,inhibited the proliferation,–
"CC(C)(C)c1cc2c(c(C(C)(C)C)c1O)CC(=O)O2 [Compound 24, 4,6-Di-tert-butyl-2,3-dihydro-5-hydroxy-2(3H)-benzofuranone]",0%,4%,25%,85%,97%,13%,5%,29%,85%,97%,7%,0%,5%,30%,47%,–,significantly inhibited the proliferation,"inhibition of proliferation (in words) ([1]; MCF-7, 10 μg/mL): significantly inhibited the proliferation; inhibition of proliferation (in words) ([2]; MB-435, 10 μg/mL): significantly inhibited the proliferation"
"Cc1cc2c(c(C)c1O)C(C)(C)CN2C(=O)C(C)(C)C [Compound 20, N-Pivaloyl-5-hydroxy-3,3,4,6-tetramethylindoline]",–,–,–,–,–,-1%,-5%,-1%,-13%,31%,2%,6%,18%,33%,63%,inhibited the proliferation,inhibited the proliferation,–

# Reference: US5674876A, “.rho.-heteroatom-substituted phenols and uses thereof” (Research Development Foundation, priority 1995, dated 1997)
